Values after ≈ are worked out from the molar mass of the structure shown. Active and inactive are the calls of the source. The calls are words filed in the database; no cut-off is given here.
Tests used:
Acinetobacter baumannii [1] = test: Bactericidal activity against drug-resistant Acinetobacter baumannii assessed as bacteriostatic efficiency measured after 0 to 24 hrs by time killing analysis; assay type: functional, organism-based; details: dose 0.5-2 µg/ml, time 0-24 hrs
[2] = tested on: Staphylococcus epidermidis; test: Antibacterial activity against Staphylococcus epidermidis after 16 to 18 hrs by broth microdilution method; assay type: functional; details: time 16-18 hrs
Staphylococcus aureus [3] = test: Antibacterial activity against methicillin-susceptible Staphylococcus aureus ATCC 29213 after 16 to 18 hrs by broth microdilution method; assay type: functional; details: time 16-18 hrs
[4] = Acute toxicity in normal mouse assessed as death at 200 mg/kg, iv observed for 14 days; assay type: organism-based; details: in vivo, 336 h, time 14 day
Acinetobacter baumannii [5] = test: Induction of intracellular ROS production in Acinetobacter baumannii Bio 53272 cells assessed as membrane potential imbalance incubated for 12 hrs by DCFH-DA probe based ROS assay; assay type: functional, organism-based
Staphylococcus aureus [6] = test: Antibacterial activity against methicillin-susceptible Staphylococcus aureus ATCC 25923 after 16 to 18 hrs by broth microdilution method; assay type: functional; details: time 16-18 hrs
[7] = Cytotoxicity against human HEK293T cells assessed as cell viability at 3.125 to 100 uM incubated for 24 hrs by MTT assay; assay type: toxicity, cell-based, HEK-293T
Acinetobacter baumannii [8] = test: Antibacterial activity against drug-resistant Acinetobacter baumannii Bio 53272 after 16 to 18 hrs by broth microdilution method; assay type: functional; details: time 16-18 hrs
Acinetobacter baumannii [9] = test: In vivo anti-bacterial activity against drug-resistant Acinetobacter baumannii infected MK mouse assessed as pathological changes of organs at 40 mg/kg; assay type: functional, organism-based
[10] = Methemoglobin toxicity in human blood at 500 uM incubated for 6 hrs by MetHb content assay; assay type: tissue-based
Acinetobacter baumannii [11] = test: Antibacterial activity against Acinetobacter baumannii Bio 34235 after 16 to 18 hrs by broth microdilution method; assay type: functional; details: time 16-18 hrs
Acinetobacter baumannii [12] = test: Anti-biofilm activity against of Acinetobacter baumannii assessed as growth inhibition at 2 microg/ml incubated for 24 hrs by microplate reader analysis relative to control; assay type: functional
Acinetobacter baumannii [13] = test: Anti-biofilm activity against Acinetobacter baumannii at 0.5 to 64 microg/ml incubated for 24 hrs by microplate reader analysis; assay type: functional; details: dose 0.5-64 µg/ml, at 0.5 to 64 µg/mL
Acinetobacter baumannii [14] = test: Antibacterial activity against Acinetobacter baumannii Bio 24253 after 16 to 18 hrs by broth microdilution method; assay type: functional; details: time 16-18 hrs
Staphylococcus aureus [15] = test: Antibacterial activity against methicillin-resistant Staphylococcus aureus ATCC 33591 after 16 to 18 hrs by broth microdilution method; assay type: functional; details: time 16-18 hrs
Acinetobacter baumannii [16] = test: Anti-biofilm activity against Acinetobacter baumannii assessed as growth inhibition at 32 microg/ml incubated for 24 hrs by microplate reader analysis relative to control; assay type: functional
Cell membrane [17] = test: Induction of cell membrane disruption in Acinetobacter baumannii assessed as outer membrane integrity by NucGreen/EthD-III costain fluorescent assay; assay type: subcellular
[18] = Acute toxicity in KM mouse infected with drug-resistant Acinetobacter baumannii assessed as pathological changes in lungs at 40 mg/kg by HE staining based analysis; assay type: organism-based; details: in vivo
Peptide deformylase [19] = target: T1, Peptide deformylase (Escherichia coli, UniProt Q9JN24); test: Inhibition of Escherichia coli PDF-Ni assessed as enzyme activity incubated for 30 min by fluorescamine method
T1 sequence (Q9JN24 whole entry): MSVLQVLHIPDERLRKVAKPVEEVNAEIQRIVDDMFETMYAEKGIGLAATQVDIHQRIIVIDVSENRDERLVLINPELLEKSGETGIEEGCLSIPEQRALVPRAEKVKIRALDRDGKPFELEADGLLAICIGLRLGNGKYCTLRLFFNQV

Acinetobacter baumannii [20] = test: Bactericidal activity against drug-resistant Acinetobacter baumannii assessed as bacteriostatic efficiency at 2 microg/mL measured within 24 hrs by time killing analysis relative to control; assay type: functional, organism-based; details: dose 2.0 µg/ml
Acinetobacter baumannii [21] = test: Induction of morphological changes in Acinetobacter baumannii Bio 53272 assessed as increased wrinkles at 8 times of MIC incubated for 4 hrs by Field emission scanning electron microscopic analysis; assay type: functional, organism-based
[22] = Cytotoxicity against human HeLa cells assessed as cell viability at 3.125 to 100 uM incubated for 24 hrs by MTT assay; assay type: toxicity, cell-based
[23] = Aqueous solubility of compound at 0.9% aqueous NaCl solution incubated for 2 hrs by UV spectrophotometry analysis; assay type: physicochemical
[24] = Acute toxicity in normal mouse assessed as aberrant behaviors at 200 mg/kg, iv observed for 14 days; assay type: organism-based; details: in vivo, 336 h, time 14 day
Escherichia coli [25] = test: Antibacterial activity against Escherichia coli ATCC 10663 after 16 to 18 hrs by broth microdilution method; assay type: functional; details: time 16-18 hrs
[26] = Acute toxicity in KM mouse infected with drug-resistant Acinetobacter baumannii assessed as pathological changes in liver at 40 mg/kg by HE staining based analysis; assay type: organism-based; details: in vivo
Staphylococcus aureus [27] = test: Induction of morphological changes in methicillin-resistant Staphylococcus aureus RB 3641 assessed as disintegration of cells at 8 times of MIC incubated for 4 hrs by Field emission scanning electron microscopic analysis; assay type: functional, organism-based
[28] = Acute toxicity in KM mouse infected with drug-resistant Acinetobacter baumannii assessed as survival rate at 40 mg/kg; assay type: organism-based; details: in vivo
Klebsiella pneumoniae [29] = test: Antibacterial activity against Klebsiella pneumoniae CICC 20093 after 16 to 18 hrs by broth microdilution method; assay type: functional; details: time 16-18 hrs
Acinetobacter baumannii [30] = test: Bactericidal activity against drug-resistant Acinetobacter baumannii assessed as bacteriostatic efficiency at 0.5 to 2 microg/mL by time killing analysis; assay type: functional, organism-based; details: dose 0.5-2 µg/ml, time 0-25 hrs
Escherichia coli [31] = test: Potency index, ratio of LBM415 MIC to test compound MIC for antibacterial activity against Escherichia coli after 16 to 18 hrs by broth microdilution method; assay type: functional; details: time 16-18 hrs
Klebsiella pneumoniae [32] = test: Antibacterial activity against Klebsiella pneumoniae CICC 21611 after 16 to 18 hrs by broth microdilution method; assay type: functional; details: time 16-18 hrs
Staphylococcus aureus [33] = test: Antibacterial activity against methicillin-susceptible Staphylococcus aureus ATCC 13709 after 16 to 18 hrs by broth microdilution method; assay type: functional; details: time 16-18 hrs
Staphylococcus aureus [34] = test: Antibacterial activity against methicillin-resistant Staphylococcus aureus Bio-090770 after 16 to 18 hrs by broth microdilution method; assay type: functional; details: time 16-18 hrs
Escherichia coli [35] = test: Antibacterial activity against Escherichia coli ATCC 10661 after 16 to 18 hrs by broth microdilution method; assay type: functional; details: time 16-18 hrs
Cell membrane [36] = test: Induction of cell membrane disruption in methicillin-resistant Staphylococcus aureus assessed as […] integrity by NucGreen/EthD-III costain fluorescent assay; assay type: subcellular
Peptide deformylase [37] = target: T2, Peptide deformylase (Staphylococcus aureus, UniProt P68826); test: Inhibition of Staphylococcus aureus PDF-Ni assessed as enzyme activity incubated for 30 min by fluorescamine method
T2 sequence (P68826 whole entry): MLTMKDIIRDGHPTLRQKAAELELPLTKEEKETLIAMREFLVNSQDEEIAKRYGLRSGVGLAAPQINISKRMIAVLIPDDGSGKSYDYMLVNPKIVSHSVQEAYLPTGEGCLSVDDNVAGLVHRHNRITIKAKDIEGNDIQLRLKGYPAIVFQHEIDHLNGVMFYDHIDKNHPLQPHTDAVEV

[38] = Acute toxicity in KM mouse infected with drug-resistant Acinetobacter baumannii assessed as pathological changes in kidney at 40 mg/kg by HE staining based analysis; assay type: organism-based; details: in vivo
Acinetobacter baumannii [39] = test: In vivo anti-bacterial activity against drug-resistant Acinetobacter baumannii infected MK mouse; assay type: functional
Escherichia coli [40] = test: Antibacterial activity against Escherichia coli ATCC 10668 after 16 to 18 hrs by broth microdilution method; assay type: functional; details: time 16-18 hrs

CCCC[C@H](CN(O)C=O)C(=O)N1CCC[C@H]1c1nnc(-c2cccs2)s1
Activity (Acinetobacter baumannii [1]): Dose-dependent-effect | MIC [2]: 0.125 µg/mL (≈ 0.306 µM) | MIC (Staphylococcus aureus [3]): 0.25 µg/mL (≈ 0.612 µM) | Activity [4]: Non-toxic | Activity (Acinetobacter baumannii [5]): Active | MIC (Staphylococcus aureus [6]): 0.25 µg/mL (≈ 0.612 µM) | IC50 at 24 h [7]: > 100000 nM | MIC (Acinetobacter baumannii [8]): 0.5 µg/mL (≈ 1.22 µM) | Activity (Acinetobacter baumannii [9]): inactive | Activity [10]: Toxic | MIC (Acinetobacter baumannii [11]): 4 µg/mL (≈ 9.79 µM) | inhibition at 2 µg/mL (Acinetobacter baumannii [12]): 50% | Activity (Acinetobacter baumannii [13]): 7.1% | MIC (Acinetobacter baumannii [14]): 4 µg/mL (≈ 9.79 µM) | MIC (Staphylococcus aureus [15]): 0.125 µg/mL (≈ 0.306 µM) | inhibition at 32 µg/mL (Acinetobacter baumannii [16]): 70% | Activity (Cell membrane [17]): Active | Activity [18]: Non-toxic | IC50 (Peptide deformylase [19]): 10.6 nM | Activity (Acinetobacter baumannii [20]): Active | Activity (Acinetobacter baumannii [21]): Active | IC50 at 24 h [22]: > 100000 nM | solubility at 2 h [23]: 2600 µg/mL (≈ 6360 µM) | Activity [24]: Non-toxic | MIC (Escherichia coli [25]): 8 µg/mL (≈ 19.6 µM) | Activity [26]: Non-toxic | Activity (Staphylococcus aureus [27]): Active | Activity [28]: Non-toxic | MIC (Klebsiella pneumoniae [29]): 16 µg/mL (≈ 39.2 µM) | Activity (Acinetobacter baumannii [30]): Dose-dependent-effect | Ratio (Escherichia coli [31]): >16 | MIC (Klebsiella pneumoniae [32]): 8 µg/mL (≈ 19.6 µM) | MIC (Staphylococcus aureus [33]): 0.25 µg/mL (≈ 0.612 µM) | MIC (Staphylococcus aureus [34]): 0.25 µg/mL (≈ 0.612 µM) | MIC (Escherichia coli [35]): 4 µg/mL (≈ 9.79 µM) | Activity (Cell membrane [36]): Active | IC50 (Peptide deformylase [37]): 2.5 nM | Activity [38]: Non-toxic | ED50 (Acinetobacter baumannii [39]): 30.4 mg/kg | MIC (Escherichia coli [40]): 8 µg/mL (≈ 19.6 µM)

— ChEMBL document CHEMBL6121016, “Design, Synthesis, and Biological Evaluation of 1,3,4-Thiadiazole Derivatives as Novel Potent Peptide Deformylase Inhibitors for Combating Drug-Resistant Gram-Positive and -Negative Bacteria” (J Med Chem, 2025)
